Patent publication EP4653445A1, “CDK INHIBITOR AND CRYSTAL FORM OF PHARMACEUTICALLY ACCEPTABLE SALT THEREOF, AND USE THEREOF” (CSPC Zhongqi Pharmaceutical Technology (Shijiazhuang) Co., …, priority 2023, dated 2024)
“And” between values parts separate entries of the source, which are not always exact repeats. Identical values can stand only once. Counter-ions that a name gives are not always drawn. Blank lines part the entries; values can stand above or below the compound they belong to.

Columns and labels:
MDA-MB-231 = experiment: In vitro tumor cell proliferation inhibition test (CTG); assay type: cell-based; settings: 4-7 days; for IC50: Homo sapiens, MDA-MB-231, Triple-negative breast cancer; for Maximum Inhibition Rate: Triple-negative breast cancer
Method: (§1) The cells were subcultured regularly, and those in the logarithmic growth phase were taken for plating. The cells were stained with trypan blue and the viable cells were counted. The cell concentration was adjusted to an appropriate level. The cell suspension was added to each well of the culture plate, and the culture medium without cells was added to the blank control wells. […] The compound working solution was added to the cell culture plate, and DMSO at the same final concentration was added to the solvent control wells. Then the plate was returned to the incubator for 4-7 days of culture. The cell viability was detected according to the instructions of the Promega CellTiter-Glo (CTG) Luminescent Cell Viability Assay Kit (Promega-G7573). […] The IC50 was calculated using the following equation: [formula] • X: log(concentration) • Y: response value, negatively correlated with X • HillSlope: slope factor • Note: […]

T47D = experiment: as above; assay type: cell-based; settings: HR+/HER2- Breast cancer, 4-7 days; for IC50: Homo sapiens, T47D
Method: as §1

HCC1187 = experiment: as above; assay type: cell-based; settings: 4-7 days; for IC50: Homo sapiens, HCC1187, Triple-negative breast cancer; for Maximum Inhibition Rate: Triple-negative breast cancer
Method: as §1

xMCF-7/Palbo-R = experiment: as above; assay type: cell-based; settings: Breast cancer (acquired resistance to Palbociclib), 4-7 days
Method: as §1

MCF-7 = experiment: as above; assay type: cell-based; settings: 4-7 days; for Maximum Inhibition Rate: HR+/HER2- Breast cancer; for IC50: Homo sapiens, MCF7, HR+/HER2- Breast cancer
Method: as §1

MDA-MB-453 = experiment: as above; assay type: cell-based; settings: 4-7 days; for Maximum Inhibition Rate: HR-/HER2+ Breast cancer; for IC50: Homo sapiens, MDA-MB-453, HR-/HER2+ Breast cancer
Method: as §1

MDA-MB-468 (Rb-) = experiment: as above; assay type: cell-based; settings: 4-7 days; for Maximum Inhibition Rate: Breast cancer (primary resistance to Palbociclib); for IC50: Homo sapiens, MDA-MB-468, Breast cancer (primary resistance to Palbociclib)
Method: as §1

[1] = Solubility comparison in water, SGF, FaSSIF and FeSSIF (HPLC of filtrates, XRPD of filter cakes); settings: time not stated
JHH-7 = experiment: In vitro tumor cell proliferation inhibition test (CTG); assay type: cell-based, Human; settings: 4-7 days
Method: (§2) The tumor cell strains were cultured in an incubator at 37 °C with 5% CO2. The cells were subcultured regularly, and those in the logarithmic growth phase were taken for plating. The cells were stained with trypan blue and the viable cells were counted. The cell concentration was adjusted to an appropriate level. The cell suspension was added to each well of the culture plate, and the culture medium without cells was added to the blank control wells. The culture plate was incubated overnight in an incubator at 37 °C, 5% CO2, and 100% RH. […] The compound working solution was added to the cell culture plate, and DMSO at the same final concentration was added to the solvent control wells. Then the plate was returned to the incubator for 4-7 days of culture. The cell viability was detected according to the instructions of the Promega CellTiter-Glo (CTG) Luminescent Cell Viability Assay Kit (Promega-G7573).
(§3) The inhibition rates of the compound at different concentrations were calculated in Excel, then the inhibition curve was plotted using GraphPad Prism software and relevant parameters, including the minimum inhibition rate, maximum inhibition rate, and IC50 were calculated.

SK-MEL-5 = experiment: as above; assay type: cell-based, Human; settings: 4-7 days
Method: as §2, §3

COLO 205 = experiment: as above; assay type: cell-based, Human; settings: 4-7 days
Method: as §2, §3

A2780 = experiment: as above; assay type: cell-based, Human; settings: 4-7 days
Method: as §2, §3

MV-4-11 = experiment: as above; assay type: cell-based, Human; settings: 4-7 days
Method: as §2, §3

MOLM-13 = experiment: as above; assay type: cell-based, Human; settings: 4-7 days
Method: as §2, §3

Huh-7 = experiment: as above; assay type: cell-based, Human; settings: 4-7 days
Method: as §2, §3

Hep3B (Rb-) = experiment: as above; assay type: cell-based, Human; settings: Liver cancer, 4-7 days
Method: as §2, §3

HCT 116 = experiment: as above; assay type: cell-based, Human; settings: 4-7 days
Method: as §2, §3

NCI-H211 = experiment: as above; assay type: cell-based, Human; settings: 4-7 days
Method: as §2, §3

HT-29 = experiment: as above; assay type: cell-based, Human; settings: 4-7 days
Method: as §2, §3

[2] = Dynamic vapor sorption (DVS) test; assay type: physicochemical
Method: • Instrument: TA Instruments Q5000 SA • Detection method: 20 to 50 mg of the sample was placed in a tared sample basket and automatically weighed, and DVS testing was performed according to the parameters in Table 7: Step Time: 60 min; Equilibration Time per RH%: 1 hour; Total Gas Flow Rate: 200 sccm; Gradient mode: 0%-90%-0% humidity variation, with a humidity variation amount of 10% for each gradient level between 0% and 90%, and gradient endpoint was determined by dm/dt < 0.01% maintained for 10 minutes.

[3] = Stability test, samples placed open for 7 days (HPLC and XRPD); assay type: physicochemical; settings: for XRPD-7days / Purity (Peak area%) 7 days: open
Description: Subsequently, the samples after 7 days were respectively detected by HPLC and XRPD to determine their chemical and physical stabilities.

[4] = as above; assay type: physicochemical; settings: HPLC

SMILES: CC(=O)c1c(C)c2cnc(Nc3ccc4c(c3)OC[C@@H]3CN(C5CCN(C)CC5)CCN43)nc2n(C2CCCC2)c1=O [Compound A]
IC50 (MDA-MB-231): 3.45 µM
Maximum Inhibition Rate (MDA-MB-231): 99.567%
Maximum Inhibition Rate (T47D): 99.910%
IC50 (T47D): 1.5 µM
IC50 (HCC1187): 1.11 µM
Maximum Inhibition Rate (HCC1187): 99.777%
IC50 (xMCF-7/Palbo-R): 3.09 µM
Maximum Inhibition Rate (xMCF-7/Palbo-R): 99.677%
Maximum Inhibition Rate (MCF-7): 99.937%
IC50 (MCF-7): 0.076 µM
Maximum Inhibition Rate (MDA-MB-453): 102.600%
Maximum Inhibition Rate (MDA-MB-453; listed as compound A): ~100%
IC50 (MDA-MB-453): 0.384 µM
Maximum Inhibition Rate (MDA-MB-468 (Rb-)): 99.693%
Maximum Inhibition Rate (MDA-MB-468 (Rb-); listed as compound A): exceeding 99%
IC50 (MDA-MB-468 (Rb-)): 0.44 µM
solubility in SGF ([1]; SGF, listed as free base): greater than 5 mg/mL
solubility in water ([1]; water): approximately 0.003 mg/mL
IC50 (JHH-7; Homo sapiens, JHH7, Liver cancer): 0.107 µM
Maximum Inhibition Rate (JHH-7; Liver cancer): 99.394%
IC50 (SK-MEL-5; Homo sapiens, SK-MEL-5, Melanoma): 9.5 µM
Maximum Inhibition Rate (SK-MEL-5; Melanoma): 99.213%
Maximum Inhibition Rate (COLO 205; Colorectal cancer): 99.093%
IC50 (COLO 205; Homo sapiens, COLO 205, Colorectal cancer): 0.734 µM
IC50 (A2780; Homo sapiens, A2780, Ovarian cancer): 0.438 µM
Maximum Inhibition Rate (A2780; Ovarian cancer): 98.887%
Maximum Inhibition Rate (MV-4-11; Hematological tumor): 99.897%
IC50 (MV-4-11; Homo sapiens, MV4-11, Hematological tumor): 0.102 µM
Maximum Inhibition Rate (MOLM-13; Hematological tumor): 99.993%
IC50 (MOLM-13; Homo sapiens, MOLM-13, Hematological tumor): 0.37 µM
IC50 (Huh-7; Homo sapiens, Huh-7, Liver cancer): 0.107 µM
Maximum Inhibition Rate (Huh-7; Liver cancer): 99.447%
IC50 (Hep3B (Rb-); Homo sapiens, Hep3B): 3.33 µM
Maximum Inhibition Rate (Hep3B (Rb-)): 99.055%
Maximum Inhibition Rate (Hep3B (Rb-); listed as compound A): exceeding 99%
Maximum Inhibition Rate (HCT 116; Colorectal cancer): 99.244%
IC50 (HCT 116; Homo sapiens, HCT-116, Colorectal cancer): 0.134 µM
IC50 (NCI-H211; Homo sapiens, NCI-H211, Small cell lung cancer): 0.201 µM
Maximum Inhibition Rate (NCI-H211; Small cell lung cancer): 99.883%
Maximum Inhibition Rate (HT-29; Colorectal cancer): 95.622%
IC50 (HT-29; Homo sapiens, HT-29, Colorectal cancer): 0.113 µM

IC50 (MDA-MB-231): > 5 µM
IC50 (T47D): > 5 µM
IC50 (HCC1187): > 5 µM
IC50 (xMCF-7/Palbo-R): 7.7 µM
IC50 (MCF-7): 0.052 µM
IC50 (MDA-MB-453): 0.188 µM
IC50 (MDA-MB-468 (Rb-)): > 5 µM
SMILES: CC(=O)c1c(C)c2cnc(Nc3ccc(N4CCNCC4)cn3)nc2n(C2CCCC2)c1=O [Palbociclib, reference compound]
Maximum Inhibition Rate (MDA-MB-231): 41.943%
Maximum Inhibition Rate (T47D): 48.850%
Maximum Inhibition Rate (HCC1187): 11.183%
Maximum Inhibition Rate (xMCF-7/Palbo-R): 98.367%
Maximum Inhibition Rate (MCF-7): 96.983%
Maximum Inhibition Rate (MDA-MB-468 (Rb-)): 34% and 34.044%

SMILES: CC(=O)c1c(C)c2cnc(Nc3ccc4c(c3)OC[C@@H]3CN(C5CCN(C)CC5)CCN43)nc2n(C2CCCC2)c1=O [crystalline form C of the benzenesulfonate of compound A]
moisture absorption ([2]; DVS, at 80% RH): 1.2%
XRPD-7days ([3]; 40°C /75%RH): remained unchanged
Purity (Peak area%) 7 days ([3]; 40°C /75%RH, HPLC): 98.79 Peak area%
XRPD-7days ([3]; 60°C): remained unchanged
Purity (Peak area%) 7 days ([3]; 60°C, HPLC): 98.89 Peak area%
XRPD-7days ([3]; 92.5%RH): changed into a new crystalline form
Purity (Peak area%) 7 days ([3]; 92.5%RH, HPLC): 98.84 Peak area%
Purity (Peak area%) 0 day [4]: 98.79 Peak area%

SMILES: CC(=O)c1c(C)c2cnc(Nc3ccc4c(c3)OC[C@@H]3CN(C5CCN(C)CC5)CCN43)nc2n(C2CCCC2)c1=O [crystalline form B of the hydrochloride salt of compound A]
XRPD pattern / crystalline form after the DVS test ([2]; before vs after DVS test): did not change
XRPD-7days ([3]; 40°C /75%RH): Unchanged
Purity (Peak area%) 7 days ([3]; 40°C /75%RH, HPLC): 99.33 Peak area%
chemical stability ([3]; 60 °C, 92.5% RH and 40 °C/75% RH for 7 days, HPLC): chemically stable
XRPD-7days ([3]; 60°C): Unchanged
Purity (Peak area%) 7 days ([3]; 60°C, HPLC): 99.38 Peak area%
XRPD-7days ([3]; 92.5%RH): Unchanged
Purity (Peak area%) 7 days ([3]; 92.5%RH, HPLC): 99.36 Peak area%
crystalline form (XRPD) after 7 days ([3]; under the three conditions 60 °C, 92.5% RH and 40 °C/75% RH): remained unchanged
Purity (Peak area%) 0 day [4]: 99.31 Peak area%
